The text below walks through data of patent US20220315968A1, “PEPTIDES AND METHODS FOR THE CARBON-CARBON BOND FORMATION” (Max-Planck-Gesellschaft zur Förderung der Wissenschaften …, priority 2019, published 2022).

In experiment [1] the test system is OXS-OXCMe-YciA cascade with FRC. As to the kind of experiment: OXS-OXCMe-Y497A-YciA cascade with FRC (α-hydroxy carboxylic acid from oxalate, one pot). It is filed as biochemical. The conditions noted are these: 2 μM FRC, 7.6 mM benzaldehyde or phenylacetaldehyde, 10 μM OXCMe-Y497A. The procedure:
0.5 mM ADP, 0.15 mM ThDP, 0.5 mM CoA, 10 mM ATP, 7.6 mM benzaldehyde or phenylacetaldehyde, 2 μM FRC, 2 μM YciA, 10 μM OXCMe-Y497A and 5 μM OXS. The reaction was started by adding 10 mM disodium oxalate. Samples were taken after 0, 15, 30, 60 min and analyzed with the mandelic acid derivatives method described above.
0.5 mM ADP, 0.15 mM ThDP, 0.5 mM CoA, 10 mM ATP, 7.6 mM benzaldehyde or phenylacetaldehyde, 2 μM FRC (Formyl-CoA:oxalate CoA-transferase from Oxalobacter formigenes EC 2.8.3.16), 2 μM YciA, 10 μM OXCMe-Y497A and 5 μM OXS were mixed and the reaction was initiated by the addition of 10 mM disodium oxalate. For the negative control FRC was omitted in a separate reaction. Samples were taken after 0, 15, 30, 60 min and analyzed with the mandelic acid derivatives method described above.

Experiment [2] relates to OXS-OXCMe-Y497A-YciA cascade. It counts as biochemical. The settings on record: 25 mM aldehyde, 10 mM disodium oxalate, 10 mM ATP, OXS 5 μM, OXCMe-Y497A 5 μM, YciA 2 μM; chiral HPLC. The procedure: Samples were diluted 1:10 in H2O. UPLC-high resolution MS analyses were performed on an Agilent 6550 iFunnel QTOF LC/MS system equipped with an electrospray ionization source to negative ionization mode. The analytes were isocratically chromatographed on a chiral column (100 mm×2.1 mm, particle size 2.7 μm, Poroshell 120 Chiral-T, Agilent) kept at ambient temperature using a mobile phase system comprised of 30:70 20 mM ammonium formate pH 4/methanol at a flow rate of 250 μl/min for 10 min. Samples were held at 10° C. and injection volume was 1 μl. […] MS data were acquired with a scan range of 100-1100 m/z. For quantification the calculated m/z value of [M-H]^− was used to obtain the extracted ion count from the total ion count.
0.5 mM ADP, 0.15 mM ThDP, 0.5 mM CoA, 10 mM ATP, 25 mM benzaldehyde, 5 μM OXS, 5 μM OXC and 2 μM YciA. The reaction was started by adding 10 mM oxalate. As negative controls, YciA, OXS or OXC were omitted in separate reactions. Samples were taken after 0, 0.05, 0.25, 0.66, 1, 2, 3, 22 hours and analyzed with the LC-MS detection of mandelic acid derivatives.
The aldehyde substrate screen of the OXS-OXCMe-Y497A-YciA cascade was carried out as described above (example 13), except that the aromatic aldehydes were prepared as 33 mM stocks in 20 vol % DMSO and diluted to final concentration of 25 mM into the assay. Samples were analyzed with the mandelic acid derivatives method described above. Mandelic acid (3a), 4-chloromandelic acid (3c), 2-chloromandelic acid (3d) and 3-phenyllactic acid (3b) were quantified by comparison to commercial standards.

The target in another experiment is T1, HACLHs (Homo sapiens, UniProt Q9UJ83).
T1 construct: His-tag (from vector pET-16b); made in house; host or cells: E. coli ArcticExpress (DE3)
As to the kind of experiment: Aldehyde and ketone screen with HACLHs (carboligation with formyl-CoA, LC-MS of CoA esters). The settings on record: 10 mM aldehyde, 1 mM formyl-CoA, 5 μM enzyme, 1 h, relative to the comparison of OXC and HACL, n.d. = product not detected. It is filed as biochemical. As to the method:
Samples were diluted 1:10 in H2O. […] Standard injection volume was 1 μl.
0.5 mM ADP, 0.15 mM ThDP.

Another experiment concerns OXCMe. The experiment in a line: OXCMe aldehyde and ketone screen (carboligation with formyl-CoA, LC-MS of CoA esters). The conditions noted are these: 10 mM aldehyde, 1 mM formyl-CoA, 5 μM enzyme, 1 h, relative to the comparison of OXC and HACL, n.d. = product not detected.
The target of a further experiment is T2, YciA (Escherichia coli, UniProt P0A8Z0).
T2 construct: His-tag (ASKA clone); made in house; host or cells: E. coli BL21 (DE3)
The experiment in a line: YciA substrate screen (thioesterase activity towards oxalyl-CoA, formyl-CoA, mandelyl-CoA). It counts as biochemical, E. coli. The conditions noted are these: 2 μM YciA, 0.5 mM CoA ester, 30° C., pH 6.8. The procedure:
0.5 mM ADP, 0.15 mM ThDP and 25 mM benzaldehyde, 2 μM YciA (A) or no YciA (B). The reaction was started by adding either 0.5 mM formyl-CoA or 0.5 mM oxalyl-CoA or 0.5 mM mandelyl-CoA. Samples were taken after 0, 1, 5 and 30 minutes and analyzed with the LC-MS detection of CoA esters. CoA esters were quantified by comparison to synthetic standards of formyl-CoA, oxalyl-CoA and mandelyl-CoA, respectively. Error bars show standard deviation of two.
Thioesterase activity of YciA towards oxalyl-CoA, formyl-CoA and racemic mandelyl-CoA. […] 0.5 mM ADP, 0.15 mM ThDP and 25 mM benzaldehyde, 2 μM YciA (A) or no YciA (B). The reaction was started by adding either 0.5 mM formyl-CoA or 0.5 mM oxalyl-CoA or 0.5 mM mandelyl-CoA. Samples were taken after 0, 1, 5 and 30 minutes and analyzed with the LC-MS detection of CoA esters. CoA esters were quantified by comparison to synthetic standards of formyl-CoA, oxalyl-CoA and mandelyl-CoA, respectively.

T1 sequence (Q9UJ83 whole entry): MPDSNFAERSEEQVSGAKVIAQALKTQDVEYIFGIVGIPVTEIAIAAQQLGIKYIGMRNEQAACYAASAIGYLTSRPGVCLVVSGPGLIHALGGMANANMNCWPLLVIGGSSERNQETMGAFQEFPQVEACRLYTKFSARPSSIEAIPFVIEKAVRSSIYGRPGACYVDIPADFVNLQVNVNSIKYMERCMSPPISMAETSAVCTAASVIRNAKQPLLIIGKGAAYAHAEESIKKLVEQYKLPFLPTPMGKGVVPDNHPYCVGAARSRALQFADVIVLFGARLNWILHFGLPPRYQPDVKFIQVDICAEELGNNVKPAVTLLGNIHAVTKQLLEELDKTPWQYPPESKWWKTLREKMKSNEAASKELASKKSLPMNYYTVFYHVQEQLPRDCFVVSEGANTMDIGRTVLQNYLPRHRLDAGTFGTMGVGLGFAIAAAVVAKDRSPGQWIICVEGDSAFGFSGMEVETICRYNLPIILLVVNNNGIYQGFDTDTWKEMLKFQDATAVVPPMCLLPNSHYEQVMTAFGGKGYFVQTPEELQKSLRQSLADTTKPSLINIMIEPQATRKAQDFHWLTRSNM
T2 sequence (P0A8Z0 whole entry): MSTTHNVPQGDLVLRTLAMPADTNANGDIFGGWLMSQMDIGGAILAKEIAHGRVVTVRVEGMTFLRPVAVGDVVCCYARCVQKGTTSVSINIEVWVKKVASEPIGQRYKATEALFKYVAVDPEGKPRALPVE

Take `O=C(O)C(O)Cc1ccccc1` (racemic) [3-phenyllactic acid]: the “increase of product formation rate by addition of FRC” value in experiment [1] turned out to be 2.3 fold. Further, the “Conversion [%]” value in experiment [2] is 58%.

As for `O=C(O)C(O)c1ccc(Cl)cc1` (racemic) [4-chloromandelic acid], the “Conversion [%]” value in experiment [2] is reported as 57%.

As for `O=C(O)[C@@H](O)c1ccccc1Cl` [2-chloromandelic acid, (S)-2-chloromandelic acid], the “Conversion [%]” value in experiment [2] is listed as 93%.

For the compound `CCC(O)C(=O)SCCNC(=O)CCNC(=O)[C@H](O)C(C)(C)COP(=O)(O)OP(=O)(O)OC[C@H]1O[C@@H](n2cnc3c(N)ncnc32)[C@H](O)[C@@H]1OP(=O)(O)O` (some centres unmarked) [2-hydroxybutyryl-CoA], on HACLHs, the HACLHs relative activity is reported as 100%. The OXCMe relative activity in the experiment on OXCMe is 5%.

Take `CC(C)(COP(=O)(O)OP(=O)(O)OC[C@H]1O[C@@H](n2cnc3c(N)ncnc32)[C@H](O)[C@@H]1OP(=O)(O)O)[C@@H](O)C(=O)NCCC(=O)NCCSC(=O)C(O)CCC(=O)O` (some centres unmarked) [2-hydroxyglutaryl-CoA]: at HACLHs, the HACLHs relative activity came out at 100%. Further, the OXCMe relative activity with OXCMe came out at 1%.

For the compound `CC(C)(COP(=O)(O)OP(=O)(O)OC[C@H]1O[C@@H](n2cnc3c(N)ncnc32)[C@H](O)[C@@H]1OP(=O)(O)O)[C@@H](O)C(=O)NCCC(=O)NCCSC=O` [formyl-CoA], on YciA, the “thioesterase activity of YciA towards the CoA ester” value (“thioesterase activity” for short) is “low activity”.

As for `CC(C)(COP(=O)(O)OP(=O)(O)OC[C@H]1O[C@@H](n2cnc3c(N)ncnc32)[C@H](O)[C@@H]1OP(=O)(O)O)[C@@H](O)C(=O)NCCC(=O)NCCSC(=O)C(O)CO` (some centres unmarked) [glyceryl-CoA], the HACLHs relative activity at HACLHs was 100%. Moreover, the OXCMe relative activity in the experiment with OXCMe came to 1%.

`CC(C)(COP(=O)(O)OP(=O)(O)OC[C@H]1O[C@@H](n2cnc3c(N)ncnc32)[C@H](O)[C@@H]1OP(=O)(O)O)[C@@H](O)C(=O)NCCC(=O)NCCSC(=O)CO` [glycolyl-CoA]: the HACLHs relative activity on HACLHs was 11%. This compound registered an OXCMe relative activity in the experiment on OXCMe of 100%.

For `CC(O)C(=O)SCCNC(=O)CCNC(=O)[C@H](O)C(C)(C)COP(=O)(O)OP(=O)(O)OC[C@H]1O[C@@H](n2cnc3c(N)ncnc32)[C@H](O)[C@@H]1OP(=O)(O)O` (some centres unmarked) [lactyl-CoA], the HACLHs relative activity at HACLHs came to 100%. This compound registered an OXCMe relative activity with OXCMe of 74%.

Regarding `O=C(O)C(O)c1ccccc1` (centres unmarked) [mandelic acid], in experiment [1], the “increase of product formation rate by addition of FRC” value was found to be 1.4 fold. The “Conversion [%]” value in experiment [2] worked out at 75%.

Turning to `CC(C)(COP(=O)(O)OP(=O)(O)OC[C@H]1O[C@@H](n2cnc3c(N)ncnc32)[C@H](O)[C@@H]1OP(=O)(O)O)[C@@H](O)C(=O)NCCC(=O)NCCSC(=O)C(O)c1ccccc1` (some centres unmarked) [mandelyl-CoA], at HACLHs, the HACLHs relative activity is given as 3%. Also, the OXCMe relative activity in the experiment on OXCMe amounted to 100%. Moreover, on YciA, the “thioesterase activity” value is listed as “relatively high”.

For the compound `CC(C)(COP(=O)(O)OP(=O)(O)OC[C@H]1O[C@@H](n2cnc3c(N)ncnc32)[C@H](O)[C@@H]1OP(=O)(O)O)[C@@H](O)C(=O)NCCC(=O)NCCSC(=O)C(=O)O` [oxalyl-CoA], the “thioesterase activity” value on YciA is given as “no activity”.

In turn, `CC(C)(COP(=O)(O)OP(=O)(O)OCC1OC(n2cnc3c(N)ncnc32)C(O)C1OP(=O)(O)O)C(O)C(=O)NCCC(=O)NCCSC(=O)C(O)Cc1ccccc1` (centres unmarked) [phenyllactyl-CoA] showed an HACLHs relative activity at HACLHs of 100%. For the same compound, the OXCMe relative activity in the experiment on OXCMe amounted to 22%.
